{"source": "patent US20040142888A1", "about": "“Modulators of RabGGT and methods of use thereof” (priority 2002, published 2004)", "key": {"rat RabGGT": {"molecular_target": "T1, rat RabGGT (Rattus norvegicus, UniProt Q08602+Q08603)", "T1 construct": "purchased Calbiochem 345855; host or cells: Sf9/baculovirus", "T1 sequence (Q08602 1-567)": "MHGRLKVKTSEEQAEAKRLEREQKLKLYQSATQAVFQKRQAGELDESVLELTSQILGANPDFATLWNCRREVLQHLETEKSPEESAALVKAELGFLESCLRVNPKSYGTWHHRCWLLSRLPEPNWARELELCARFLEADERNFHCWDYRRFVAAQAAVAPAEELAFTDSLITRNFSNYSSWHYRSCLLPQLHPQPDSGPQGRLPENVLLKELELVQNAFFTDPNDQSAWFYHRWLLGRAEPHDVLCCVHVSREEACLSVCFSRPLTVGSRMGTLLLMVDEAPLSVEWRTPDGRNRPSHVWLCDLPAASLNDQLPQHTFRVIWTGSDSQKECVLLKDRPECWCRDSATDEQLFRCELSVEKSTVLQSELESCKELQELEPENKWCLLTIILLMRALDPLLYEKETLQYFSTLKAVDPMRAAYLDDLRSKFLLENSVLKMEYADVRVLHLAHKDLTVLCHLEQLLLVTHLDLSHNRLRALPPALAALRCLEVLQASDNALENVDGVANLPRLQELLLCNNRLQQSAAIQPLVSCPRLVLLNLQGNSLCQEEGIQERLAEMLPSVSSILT", "T1 sequence (Q08603 1-331)": "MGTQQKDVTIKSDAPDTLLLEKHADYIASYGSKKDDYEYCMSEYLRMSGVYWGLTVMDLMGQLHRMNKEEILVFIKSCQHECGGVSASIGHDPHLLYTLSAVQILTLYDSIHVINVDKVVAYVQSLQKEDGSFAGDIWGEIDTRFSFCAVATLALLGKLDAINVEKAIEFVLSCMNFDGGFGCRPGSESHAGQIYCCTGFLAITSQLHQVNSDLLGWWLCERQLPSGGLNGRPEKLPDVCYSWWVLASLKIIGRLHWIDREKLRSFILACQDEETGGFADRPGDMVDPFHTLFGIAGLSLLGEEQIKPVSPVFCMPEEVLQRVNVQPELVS", "assay": "RabGGT filter binding assay: transfer of (3H)geranylgeranyl from 3H-GGPP to recombinant Rab3A", "format": "biochemical", "conditions": "for IC90/IC50: RabGGT inhibition", "excerpt": "The effect of compounds 7A through 7T on RabGGT activity was quantified using a filter binding assay that measures the transfer of (3H) geranylgeranyl groups (GG) from all-trans-(3H)geranylgeranyl pyrophosphate (3H-GGPP) to recombinant Rab3A protein (Shen & Seabra, 1996, JBC, 271 :3692; Armstrong et al., 1996, Methods in Enzymology 257:30). Modifications to published protocols are noted explicitly below.\nRecombinant rat RabGGT, expressed using the Sf9/baculovirus system, was purchased from Calbiochem (cat. no. 345855). Recombinant unprenylated human Rab3A was obtained from Panvera.(cat. no. P2173). Human REβ-1, expressed in Sf9 cells, was obtained from Calbiochem (cat. no. 554000). Tritium labeled geranylgeranyl pyrophosphate was purchased from Amersham Pharmacia Biotech (15 Ci/mmol). Unlabeled GGPP was purchased from Sigma (cat. no. G-6025).\nThe reaction buffer contained 50 mM HEPES pH7.4, 5 mM MgCl2, 1 mM DTT, 1 mM Nβ-40. Solutions of RabGGT, Rab3A, REP-1, and GGPP were prepared in this reaction buffer. Final protein concentrations in the reaction mixture were modified from the published protocols, with the standard reaction mixture containing 2 μM Rab3A, 0.2 μM REP-1, 5 μM unlabeled GGPP, 0.5 μM labeled GGPP, and 10-50 nM RabGGT in a total volume of 20 μl. The specific activity of (3H)GGPP used in the assay was 3000 dpm/pmol.\nCompounds were prepared as 50 mM stocks in DMSO and diluted to give an appropriate concentration for the assay as a 20% DMSO stock. 2 μl of the diluted compound stock was added to a 20 μl reaction to give a final DMSO concentration of 2% in the assay.\nThe order of addition of reagents was altered from the published protocols. Reaction mixtures were prepared by sequentially adding Rab3A and REP-1 proteins to the reaction buffer, followed by compound and RabGGT enzyme to a volume of 18 μl. Reactions were initiated by the addition of 2 μl of a solution that contained unlabeled and labeled GGPP. After a 30 minute incubation at 37° C., 1 ml of stop solution (1 volume of concentrated HCl acid with 9 volumes of ethanol) was added and mixed. The solution was then incubated at room temperature for 1 hour to completely precipitate proteins.\nThe precipitate was collected by vacuum filtration using a vacuum filtration manifold (Millipore model 1225) onto 25 mm GF/A filters (Whatman) that were prewetted with ethanol. The tubes were rinsed twice with 1 ml ethanol which was also poured over the filters. Each filter was subsequently washed three times with 2 mls of ethanol per wash, dried under vacuum, and then put in scintillation vials. Four milliliters of scintillation fluid was added and the radioactivity was quantified on a scintillation counter. Several types of blank reactions were conducted including withholding the enzyme, the substrate, or the accessory protein REP-1, or replacing the compound solution with a 20% DMSO solution. For the substrate titration experiment, the equimolar amounts of Rab3A and REP-1 were mixed and preincubated for 30 min at room temperature before addition of the enzyme.\nThe data was analyzed by non-linear regression analysis methods using the program PRIZM (GraphPad Software, Inc.). Inhibition constants were obtained by analyzing the data using the one site competition equation provided by the software. FIG. 7 presents a typical data series obtained for compound 7B using these methods."}, "C. elegans germline": {"test_system": "C. elegans germline", "assay": "Apoptosis in the C. elegans germline (apoptotic corpses per germline arm), after compound and/or RNAi treatment", "format": "in vivo", "conditions": "for increase in apoptotic corpses / % arms with >2 corpses / Corpses/germline arm, mean / Frequency: germline arms with 0 apoptotic corpses / Frequency: germline arms with 1 apoptotic corpse / Frequency: germline arms with 2 apoptotic corpses / Frequency: germline arms with 3 apoptotic corpses / Frequency: germline arms with 4 apoptotic corpses / Frequency: germline arms with >4 apoptotic corpses: 7B at 1.6 mM"}, "HCT116 colon tumor": {"test_system": "HCT116 colon tumor", "conditions": "HCT116 xenograft, 600 mg/kg orally once daily for ten doses, cited from earlier work"}, "[1]": {"conditions": "recombinant rat RabGGT, Rab3A, REP-1, 30 minute at 37° C."}, "[2]": {"conditions": "wild-type worms, 7B 0.3 mM and/or RNAi against RabGGT alpha subunit"}}}
{"compound": "Cn1cncc1CN1C[C@@H](Cc2ccccc2)N(S(=O)(=O)c2cccs2)Cc2cc(C#N)ccc21", "note": "[Compound 7J]", "values": [{"measurement": "IC90/IC50", "setting": "rat RabGGT", "value": 5}, {"measurement": "IC50", "setting": "rat RabGGT; Table 7", "value": 12, "unit": "nM"}, {"measurement": "IC50", "setting": "rat RabGGT; [1]", "value": 12, "unit": "nM"}, {"measurement": "IC90", "setting": "rat RabGGT; [1]", "value": 58, "unit": "nM"}]}
{"compound": "COc1ccc(S(=O)(=O)N2Cc3cc(C#N)ccc3N(Cc3cncn3C)C[C@H]2Cc2ccccc2)cc1", "note": "[Compound 7I]", "values": [{"measurement": "IC90/IC50", "setting": "rat RabGGT", "value": 6}, {"measurement": "IC50", "setting": "rat RabGGT; Table 7", "value": 16, "unit": "nM"}, {"measurement": "IC50", "setting": "rat RabGGT; [1]", "value": 16, "unit": "nM"}, {"measurement": "IC90", "setting": "rat RabGGT; [1]", "value": 93, "unit": "nM"}]}
{"compound": "COc1ccc(S(=O)(=O)N2Cc3cc(C#N)ccc3N(Cc3cnc[nH]3)C[C@H]2Cc2ccccc2)cc1", "note": "[Compound 7A]", "values": [{"measurement": "IC90/IC50", "setting": "rat RabGGT", "value": 8}, {"measurement": "IC50", "setting": "rat RabGGT; Table 7", "value": 36, "unit": "nM"}, {"measurement": "IC50", "setting": "rat RabGGT; [1]", "value": 36, "unit": "nM"}, {"measurement": "IC90", "setting": "rat RabGGT; [1]", "value": 295, "unit": "nM"}]}
{"compound": "N#Cc1ccc2c(c1)CN(S(=O)(=O)N1CCCCC1)[C@H](Cc1ccccc1)CN2Cc1cnc[nH]1", "note": "[Compound 7B]", "values": [{"measurement": "increase in apoptotic corpses", "setting": "C. elegans germline; APAF-1/ced-4 mutants", "value": "no increase in corpses was observed"}, {"measurement": "% arms with >2 corpses", "setting": "C. elegans germline; WT worms", "value": 100, "unit": "%"}, {"measurement": "Corpses/germline arm, mean", "setting": "C. elegans germline; WT worms", "value": 6.25}, {"measurement": "Frequency: germline arms with 0 apoptotic corpses", "setting": "C. elegans germline; WT worms", "value": 0}, {"measurement": "Frequency: germline arms with 1 apoptotic corpse", "setting": "C. elegans germline; WT worms", "value": 0}, {"measurement": "Frequency: germline arms with 2 apoptotic corpses", "setting": "C. elegans germline; WT worms", "value": 0}, {"measurement": "Frequency: germline arms with 3 apoptotic corpses", "setting": "C. elegans germline; WT worms", "value": 1}, {"measurement": "Frequency: germline arms with 4 apoptotic corpses", "setting": "C. elegans germline; WT worms", "value": 0}, {"measurement": "Frequency: germline arms with >4 apoptotic corpses", "setting": "C. elegans germline; WT worms", "value": 10}, {"measurement": "increase in apoptotic corpses", "setting": "C. elegans germline; caspase/ced-3 mutants", "value": "no increase in corpses was observed"}, {"measurement": "% arms with >2 corpses", "setting": "C. elegans germline; ced3 mutant worms", "value": 0, "unit": "%"}, {"measurement": "Corpses/germline arm, mean", "setting": "C. elegans germline; ced3 mutant worms", "value": 0.08}, {"measurement": "Frequency: germline arms with 0 apoptotic corpses", "setting": "C. elegans germline; ced3 mutant worms", "value": 12}, {"measurement": "Frequency: germline arms with 1 apoptotic corpse", "setting": "C. elegans germline; ced3 mutant worms", "value": 1}, {"measurement": "Frequency: germline arms with 2 apoptotic corpses", "setting": "C. elegans germline; ced3 mutant worms", "value": 0}, {"measurement": "Frequency: germline arms with 3 apoptotic corpses", "setting": "C. elegans germline; ced3 mutant worms", "value": 0}, {"measurement": "Frequency: germline arms with 4 apoptotic corpses", "setting": "C. elegans germline; ced3 mutant worms", "value": 0}, {"measurement": "Frequency: germline arms with >4 apoptotic corpses", "setting": "C. elegans germline; ced3 mutant worms", "value": 0}, {"measurement": "% arms with >2 corpses", "setting": "C. elegans germline; ced4 mutant worms", "value": 0, "unit": "%"}, {"measurement": "Corpses/germline arm, mean", "setting": "C. elegans germline; ced4 mutant worms", "value": 0.15}, {"measurement": "Frequency: germline arms with 0 apoptotic corpses", "setting": "C. elegans germline; ced4 mutant worms", "value": 11}, {"measurement": "Frequency: germline arms with 1 apoptotic corpse", "setting": "C. elegans germline; ced4 mutant worms", "value": 2}, {"measurement": "Frequency: germline arms with 2 apoptotic corpses", "setting": "C. elegans germline; ced4 mutant worms", "value": 0}, {"measurement": "Frequency: germline arms with 3 apoptotic corpses", "setting": "C. elegans germline; ced4 mutant worms", "value": 0}, {"measurement": "Frequency: germline arms with 4 apoptotic corpses", "setting": "C. elegans germline; ced4 mutant worms", "value": 0}, {"measurement": "Frequency: germline arms with >4 apoptotic corpses", "setting": "C. elegans germline; ced4 mutant worms", "value": 0}, {"measurement": "observed number of apoptotic corpses per germline arm", "setting": "C. elegans germline; wild-type adult worms, compound at 0.8 mM or higher", "value": "5-7"}, {"measurement": "% arms with 0-2 corpses", "setting": "C. elegans germline; [2]", "value": 50, "unit": "%"}, {"measurement": "% arms with 3-4 corpses", "setting": "C. elegans germline; [2]", "value": 33, "unit": "%"}, {"measurement": "% arms with >4 corpses", "setting": "C. elegans germline; [2]", "value": 17, "unit": "%"}, {"measurement": "Corpses/arm, mean", "setting": "C. elegans germline; [2]", "value": 2.3}, {"measurement": "Frequency: arms with 0 apoptotic corpses", "setting": "C. elegans germline; [2]", "value": 5}, {"measurement": "Frequency: arms with 1 apoptotic corpse", "setting": "C. elegans germline; [2]", "value": 5}, {"measurement": "Frequency: arms with 2 apoptotic corpses", "setting": "C. elegans germline; [2]", "value": 2}, {"measurement": "Frequency: arms with 3 apoptotic corpses", "setting": "C. elegans germline; [2]", "value": 5}, {"measurement": "Frequency: arms with 4 apoptotic corpses", "setting": "C. elegans germline; [2]", "value": 3}, {"measurement": "Frequency: arms with >4 apoptotic corpses", "setting": "C. elegans germline; [2]", "value": 4}, {"measurement": "IC90/IC50", "setting": "rat RabGGT", "value": 9}, {"measurement": "IC50", "setting": "rat RabGGT; Table 7", "value": 21, "unit": "nM"}, {"measurement": "IC50", "setting": "rat RabGGT; [1]", "value": 21, "unit": "nM"}, {"measurement": "IC90", "setting": "rat RabGGT; [1]", "value": 199, "unit": "nM"}]}
{"compound": "CCCS(=O)(=O)N1Cc2cc(C#N)ccc2N(Cc2cnc[nH]2)C[C@H]1Cc1ccccc1", "note": "[Compound 7H]", "values": [{"measurement": "death attributed to drug related toxicity (among eight mice treated)", "setting": "HCT116 colon tumor", "value": "one"}, {"measurement": "mice that experienced cure of the tumor (among eight mice treated)", "setting": "HCT116 colon tumor; cure = no mass larger than 35 mg", "value": "seven"}, {"measurement": "IC90/IC50", "setting": "rat RabGGT", "value": 5}, {"measurement": "IC50", "setting": "rat RabGGT; Table 7", "value": 21, "unit": "nM"}, {"measurement": "IC50", "setting": "rat RabGGT; [1]", "value": 21, "unit": "nM"}, {"measurement": "IC90", "setting": "rat RabGGT; [1]", "value": 115, "unit": "nM"}]}
